Laboratory results published in ChEMBL document CHEMBL1201862, “PubChem BioAssay data set” (2004).
Calls of active or inactive are those of the source.

Key:
[1] = target: T1, Orexin/Hypocretin receptor type 1 (Homo sapiens, UniProt O43613); assay: Homogeneous Time Resolved Fluorescence (HTRF)-based cell-based high throughput dose response assay for antagonists of the orexin 1 receptor (OX1R; HCRTR1). [Related pubchem assays (depositor defined):AID434989, AID435008, AID463079, AID485270, AID492963, AID492964, AID492965, AID493232, AID504717, AID504718]; format: functional
T1 sequence (O43613 whole entry): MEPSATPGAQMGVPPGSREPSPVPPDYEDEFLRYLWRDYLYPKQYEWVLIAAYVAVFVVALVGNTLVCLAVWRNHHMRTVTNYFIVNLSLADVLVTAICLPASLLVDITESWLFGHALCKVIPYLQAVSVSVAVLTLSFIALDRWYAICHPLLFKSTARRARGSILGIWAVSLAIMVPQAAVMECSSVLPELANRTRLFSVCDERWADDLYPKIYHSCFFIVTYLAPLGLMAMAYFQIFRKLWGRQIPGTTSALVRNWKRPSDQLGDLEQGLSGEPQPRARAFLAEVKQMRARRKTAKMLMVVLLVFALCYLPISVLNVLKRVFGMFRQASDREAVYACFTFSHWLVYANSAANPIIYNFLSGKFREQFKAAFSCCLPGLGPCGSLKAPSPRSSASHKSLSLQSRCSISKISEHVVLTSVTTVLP

[2] = HEp-2 cell cytotoxicity, dose response, cytotoxicity control for RSV inhibitor project, HTS (AID 2410); format: functional; details: human respiratory syncytial virus
[3] = target: T1, Orexin/Hypocretin receptor type 1; assay: Fluorescence-based cell-based high throughput dose response assay for antagonists of the orexin 1 receptor (OX1R; HCRTR1). [Related pubchem assays (depositor defined):AID434989, AID435008, AID463079, AID485270, AID492963, AID492964, AID492965, AID493232, AID504717, AID504718]; format: functional
Orexin receptor type 2 [4] = target: T2, Orexin receptor type 2 (Homo sapiens, UniProt O43614); assay: Counterscreen assay for antagonists of the orexin 1 receptor (OX1R; HCRTR1): Fluorescence-based cell-based dose response assay for antagonists of the orexin 2 receptor (OX2R; HCRTR2), run by assay provider.; format: functional
T2 sequence (O43614 whole entry): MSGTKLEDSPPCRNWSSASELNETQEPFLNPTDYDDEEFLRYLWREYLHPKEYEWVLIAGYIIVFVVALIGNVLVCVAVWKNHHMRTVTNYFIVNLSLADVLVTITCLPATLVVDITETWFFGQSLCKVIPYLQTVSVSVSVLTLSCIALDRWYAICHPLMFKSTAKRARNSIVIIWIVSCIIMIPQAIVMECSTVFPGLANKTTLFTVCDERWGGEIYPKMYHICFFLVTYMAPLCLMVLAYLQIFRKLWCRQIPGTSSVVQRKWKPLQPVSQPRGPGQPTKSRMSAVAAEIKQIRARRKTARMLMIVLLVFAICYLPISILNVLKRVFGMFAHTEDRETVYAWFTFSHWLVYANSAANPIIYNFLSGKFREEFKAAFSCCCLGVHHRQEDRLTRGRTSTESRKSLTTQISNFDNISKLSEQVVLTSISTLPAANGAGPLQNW

Orexin receptor type 2 [5] = target: T2, Orexin receptor type 2; assay: Counterscreen assay for antagonists of the orexin 1 receptor (OX1R; HCRTR1): Homogeneous Time Resolved Fluorescence (HTRF)-based cell-based dose response assay for antagonists of the orexin 2 receptor (OX2R; HCRTR2), run by assay provider.; format: functional
[6] = Counterscreen for antagonists of the orexin 1 receptor (OX1R; HCRTR1): Fluorescence-based cell-based high throughput dose response assay to identify antagonists of the parental CHO cell line. [Related pubchem assays (depositor defined):AID434989, AID435008, AID463079, AID485270, AID492963, AID492964, AID492965, AID493232, AID504699, AID504701]; format: functional
CHO-K1 = assay: Counterscreen for antagonists of the orexin 1 receptor (OX1R; HCRTR1): Homogeneous time resolved fluorescence (HTRF)-based cell-based dose response assay to identify antagonists of the parental CHO-K1 cell line. [Related pubchem assays (depositor defined):AID434989, AID435008, AID463079, AID485270, AID492963, AID492964, AID492965, AID493232, AID504699, AID504701]; format: functional; details: Cricetulus griseus
[7] = control 3'UTR Renilla luciferase suppression, dose response, counter-screen for Shn3 inhibitor project, cell-based, Clone20-Shn3RL, cherry-picked (AID 624133); format: functional
[8] = Shn3 3'UTR reporter inhibitors, dose response, cell-based, Clone20 osteoblasts, firefly luciferase, cherry-picked (AID 624132); format: functional;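 note: firefly luciferase luminescence from reporter carrying the Shn3 3'UTR in osteoblasts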
Protein Wnt-3a = Protein Wnt-3a (Mus musculus, UniProt P27467); assay: Wnt3a-driven reporter signaling inhibition, dose response, selectivity assay for Gli-SUFU antagonist project, Wnt-LIGHT cells, luminescence (AID 651570); format: functional; details: read-out: IC50_Mean;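 note: Wnt-LIGHT reporter cells stimulated with conditioned medium from Wnt3a-producing cells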
Sequence of Protein Wnt-3a (P27467 whole entry): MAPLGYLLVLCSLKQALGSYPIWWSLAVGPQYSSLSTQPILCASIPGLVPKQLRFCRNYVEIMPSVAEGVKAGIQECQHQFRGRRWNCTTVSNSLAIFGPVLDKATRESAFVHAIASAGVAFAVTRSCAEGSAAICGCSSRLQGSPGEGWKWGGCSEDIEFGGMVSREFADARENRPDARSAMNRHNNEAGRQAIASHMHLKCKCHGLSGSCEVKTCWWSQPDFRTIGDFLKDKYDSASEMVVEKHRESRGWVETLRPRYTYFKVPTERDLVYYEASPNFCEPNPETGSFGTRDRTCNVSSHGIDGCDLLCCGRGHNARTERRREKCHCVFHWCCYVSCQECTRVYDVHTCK

[9] = HepG2 cell cytotoxicity, dose response, cytotoxicity control for Shn3 inhibitor project, CellTiter-Glo, cherry-picked (AID 624134); format: functional, cell-based
[10] = target: Adenosylmethionine-8-amino-7-oxononanoate aminotransferase (Mycobacterium tuberculosis, UniProt P9WQ81); assay: Mycobacterium tuberculosis BioA enzyme inhibitor Measured in Biochemical System Using Plate Reader - 2163-02_Inhibitor_Dose_CherryPick_Activity.; format: functional, Mycobacterium tuberculosis UT205
Sequence of Adenosylmethionine-8-amino-7-oxononanoate aminotransferase (P9WQ81 whole entry): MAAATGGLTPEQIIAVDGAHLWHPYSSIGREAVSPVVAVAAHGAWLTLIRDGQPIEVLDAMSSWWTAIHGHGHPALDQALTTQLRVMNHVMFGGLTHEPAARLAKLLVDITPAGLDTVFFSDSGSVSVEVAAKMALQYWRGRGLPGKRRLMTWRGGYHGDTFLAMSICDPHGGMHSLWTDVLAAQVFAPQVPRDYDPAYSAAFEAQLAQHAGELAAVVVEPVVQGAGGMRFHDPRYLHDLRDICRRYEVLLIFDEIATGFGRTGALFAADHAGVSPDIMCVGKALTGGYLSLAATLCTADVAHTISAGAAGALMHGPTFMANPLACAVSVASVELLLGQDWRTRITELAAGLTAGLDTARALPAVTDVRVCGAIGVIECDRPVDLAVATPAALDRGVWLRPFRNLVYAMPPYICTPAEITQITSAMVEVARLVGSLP

[11] = tested on: Streptococcus sp. 'group A'; assay: growth inhibition of control SK(-) GAS strain, dose response, counter-screen for streptokinase expression inhibitor project, luminescence, kanamycin, BacTiterGlo, confirmation (AID 1900); format: functional, organism-based
[12] = target: T3, High affinity choline transporter 1 (Homo sapiens, UniProt Q9GZV3); assay: CHT inhibitors, dose response, cell-based, 10-point CRC, membrane potential dye (AID 588401); format: functional;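 note: membrane potential dye fluorescence of choline-evoked depolarization via CHT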
T3 sequence (Q9GZV3 whole entry): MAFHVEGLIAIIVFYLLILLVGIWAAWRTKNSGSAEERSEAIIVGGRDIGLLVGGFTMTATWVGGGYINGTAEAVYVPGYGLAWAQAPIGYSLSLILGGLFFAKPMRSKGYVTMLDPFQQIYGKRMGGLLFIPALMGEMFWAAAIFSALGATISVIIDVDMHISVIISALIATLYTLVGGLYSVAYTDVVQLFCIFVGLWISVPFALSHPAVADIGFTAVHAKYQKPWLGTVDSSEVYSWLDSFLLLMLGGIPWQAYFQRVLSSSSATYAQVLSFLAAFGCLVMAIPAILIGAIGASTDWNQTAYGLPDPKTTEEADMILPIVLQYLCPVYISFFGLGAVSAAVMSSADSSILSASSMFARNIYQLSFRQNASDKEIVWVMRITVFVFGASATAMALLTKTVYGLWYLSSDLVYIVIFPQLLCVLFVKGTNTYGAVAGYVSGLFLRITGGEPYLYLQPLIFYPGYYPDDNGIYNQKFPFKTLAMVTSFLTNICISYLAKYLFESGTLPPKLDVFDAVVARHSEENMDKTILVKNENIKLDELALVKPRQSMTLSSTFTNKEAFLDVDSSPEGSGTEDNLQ

Streptococcus = assay: Group A Streptococcus viability loss, dose response, counter-screen for streptokinase expression inhibitor project, luminescence, BacTiterGlo (AID 1915); format: functional, organism-based;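 note: potency for reduction of bacterial viability or growth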
[13] = target: T3, High affinity choline transporter 1; assay: CHT inhibitors, dose response, cell-based, 5-point CRC, membrane potential dye (AID 504840); format: functional
Streptokinase A = target: T4, Streptokinase A (Streptococcus pyogenes serotype M1, UniProt P10520); assay: S. pyogenes streptokinase expression inhibitors, potency, dose response, plasminogen activation absorbance, OD405 (AID 1914); format: functional, Streptococcus pyogenes M1 GAS;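 note: secreted streptokinase activity via plasminogen activation per viability signal from cell pellet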
T4 sequence (P10520 whole entry): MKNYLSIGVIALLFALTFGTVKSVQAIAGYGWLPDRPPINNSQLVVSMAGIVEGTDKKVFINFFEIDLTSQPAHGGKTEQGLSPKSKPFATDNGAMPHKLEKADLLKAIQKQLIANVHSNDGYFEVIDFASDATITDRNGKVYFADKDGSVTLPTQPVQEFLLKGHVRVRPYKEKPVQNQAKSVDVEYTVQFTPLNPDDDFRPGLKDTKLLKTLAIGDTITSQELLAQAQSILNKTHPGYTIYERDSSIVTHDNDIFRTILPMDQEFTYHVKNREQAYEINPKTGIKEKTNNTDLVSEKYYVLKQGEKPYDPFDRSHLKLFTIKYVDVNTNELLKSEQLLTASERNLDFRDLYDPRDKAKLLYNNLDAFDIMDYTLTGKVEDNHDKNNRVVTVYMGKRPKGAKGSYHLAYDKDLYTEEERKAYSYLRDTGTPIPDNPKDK

[14] = target: FAD-linked sulfhydryl oxidase ALR (Homo sapiens, UniProt P55789); assay: inhibitors of human ALR sulfhydryl oxidase, dose response, biochemical, H2O2 detection, luminescence, cherry-pick (AID 493248)
Sequence of FAD-linked sulfhydryl oxidase ALR (P55789 whole entry): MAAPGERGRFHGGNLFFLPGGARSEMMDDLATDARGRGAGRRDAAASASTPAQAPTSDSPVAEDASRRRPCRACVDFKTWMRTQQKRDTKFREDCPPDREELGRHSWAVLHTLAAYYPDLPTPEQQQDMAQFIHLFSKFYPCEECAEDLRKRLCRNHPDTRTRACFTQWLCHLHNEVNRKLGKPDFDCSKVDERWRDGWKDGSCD

H9c2 = assay: cells; format: functional, cell-based; details: Rattus norvegicus, H9c2, Myocardium
[15] = target: Potassium voltage-gated channel subfamily KQT member 2 (Rattus norvegicus, UniProt O88943); assay: KCNQ2 potassium channel inhibitors, dose response, cell-based, automated electrophysiology, set II, rat KCNQ2 (AID 588637); format: functional
Sequence of Potassium voltage-gated channel subfamily KQT member 2 (O88943 whole entry): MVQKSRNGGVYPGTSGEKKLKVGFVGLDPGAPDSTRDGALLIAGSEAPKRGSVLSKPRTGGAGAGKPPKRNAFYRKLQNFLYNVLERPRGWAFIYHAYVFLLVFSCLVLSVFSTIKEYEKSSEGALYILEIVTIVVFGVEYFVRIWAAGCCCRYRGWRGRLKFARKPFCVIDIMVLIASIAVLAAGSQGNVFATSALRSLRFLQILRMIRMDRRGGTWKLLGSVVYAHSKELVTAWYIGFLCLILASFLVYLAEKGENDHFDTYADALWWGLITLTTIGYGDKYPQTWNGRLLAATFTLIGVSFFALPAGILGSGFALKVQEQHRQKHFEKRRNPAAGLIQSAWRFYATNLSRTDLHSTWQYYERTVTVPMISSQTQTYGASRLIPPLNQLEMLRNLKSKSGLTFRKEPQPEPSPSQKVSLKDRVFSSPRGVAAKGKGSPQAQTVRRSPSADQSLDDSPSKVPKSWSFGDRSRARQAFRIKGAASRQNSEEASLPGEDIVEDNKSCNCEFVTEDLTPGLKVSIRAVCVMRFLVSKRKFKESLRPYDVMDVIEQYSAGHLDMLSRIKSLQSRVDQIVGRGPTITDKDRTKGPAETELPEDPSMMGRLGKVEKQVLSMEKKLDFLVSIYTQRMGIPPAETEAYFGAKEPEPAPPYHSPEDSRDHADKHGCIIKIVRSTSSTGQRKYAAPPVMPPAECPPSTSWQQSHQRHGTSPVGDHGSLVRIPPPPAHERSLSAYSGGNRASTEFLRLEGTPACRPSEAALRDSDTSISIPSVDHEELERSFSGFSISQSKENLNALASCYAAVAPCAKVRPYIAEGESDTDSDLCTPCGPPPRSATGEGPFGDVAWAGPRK

[16] = target: T5, Apoptotic protease-activating factor 1 (Homo sapiens, UniProt O14727); assay: SAR analysis of small molecule Activators of Apaf-1 in a Fluorescent assay.; format: functional; details: read-out: EC50_Mean;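 note: caspase-3 cleavage of fluorogenic Rh110 DEVD substrate downstream of apoptosome activation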
T5 sequence (O14727 whole entry): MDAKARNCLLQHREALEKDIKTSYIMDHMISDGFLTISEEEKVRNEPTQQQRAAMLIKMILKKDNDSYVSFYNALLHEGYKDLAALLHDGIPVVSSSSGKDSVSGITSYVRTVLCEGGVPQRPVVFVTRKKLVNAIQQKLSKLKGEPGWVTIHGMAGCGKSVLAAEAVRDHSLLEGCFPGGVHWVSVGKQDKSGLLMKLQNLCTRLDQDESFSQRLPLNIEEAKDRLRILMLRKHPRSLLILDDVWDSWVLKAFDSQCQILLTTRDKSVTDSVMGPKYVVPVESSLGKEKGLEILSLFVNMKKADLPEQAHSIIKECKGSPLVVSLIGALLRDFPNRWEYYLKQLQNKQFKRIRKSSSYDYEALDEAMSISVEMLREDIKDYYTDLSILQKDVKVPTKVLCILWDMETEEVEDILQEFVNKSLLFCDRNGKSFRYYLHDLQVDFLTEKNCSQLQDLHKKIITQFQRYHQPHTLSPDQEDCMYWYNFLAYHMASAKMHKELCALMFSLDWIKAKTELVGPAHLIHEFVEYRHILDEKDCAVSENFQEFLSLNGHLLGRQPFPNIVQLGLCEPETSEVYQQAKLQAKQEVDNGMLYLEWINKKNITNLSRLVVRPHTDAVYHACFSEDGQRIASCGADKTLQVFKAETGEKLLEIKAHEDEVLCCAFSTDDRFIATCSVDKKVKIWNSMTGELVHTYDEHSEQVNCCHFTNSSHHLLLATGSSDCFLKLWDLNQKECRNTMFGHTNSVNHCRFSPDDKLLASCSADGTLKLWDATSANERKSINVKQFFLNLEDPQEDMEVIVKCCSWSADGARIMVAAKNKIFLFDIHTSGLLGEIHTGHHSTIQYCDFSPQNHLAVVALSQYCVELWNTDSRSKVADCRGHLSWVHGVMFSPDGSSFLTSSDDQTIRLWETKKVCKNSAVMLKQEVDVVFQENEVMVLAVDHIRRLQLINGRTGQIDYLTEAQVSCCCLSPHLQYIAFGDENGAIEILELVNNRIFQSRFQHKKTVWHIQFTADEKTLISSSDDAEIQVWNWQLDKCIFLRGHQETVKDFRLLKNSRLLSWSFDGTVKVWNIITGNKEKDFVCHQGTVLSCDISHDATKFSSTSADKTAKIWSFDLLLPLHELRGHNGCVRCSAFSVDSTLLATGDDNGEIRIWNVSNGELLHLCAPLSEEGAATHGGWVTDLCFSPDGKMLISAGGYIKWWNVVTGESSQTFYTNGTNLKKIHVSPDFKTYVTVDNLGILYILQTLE

## Cc1nn(-c2ccccc2)c2nc(N)c(C#N)c(-c3ccc(O)c(O)c3)c12
[1]
  IC50: 9.34 µM (active)
[2]
  CC50: 17.4 µM (active)
[3]
  IC50: > 5.53 µM (active)
Orexin receptor type 2 [4]
  IC50: > 88.8 µM (inactive)
Orexin receptor type 2 [5]
  IC50: > 50 µM (inactive)
[6]
  IC50: 36.2 µM (inactive)
CHO-K1
  IC50: > 66.2 µM (inactive)

## C[C@@H]1COC(=O)[C@@H](NC(=O)OCC2c3ccccc3-c3ccccc32)C/C=C\C[C@@H](CC(=O)N(CCO)Cc2ccccc2)C(=O)N1
[7]
  AC50: 3.59 µM (active)
[8]
  AC50: 1.89 µM (active)
Protein Wnt-3a
  IC50: 3.34 µM (active)
[9]
  AC50: > 70 µM (inactive)

## Cc1c2cnn(CC(=O)NCc3ccccn3)c(=O)c2c(C)n1Cc1ccc(Cl)cc1
[10]
  AC50: 2.49 µM (active)

## O=C(NC(Cc1c[nH]c2ccccc12)C(=O)N/N=C/c1ccc(Cl)cc1)c1cccs1 (stereo unspecified)
[1]
  IC50: 3.28 µM (active)
[2]
  CC50: 14.7 µM (active)
[3]
  IC50: 8.68 µM (active)
Orexin receptor type 2 [4]
  IC50: 24 µM (inactive)
Orexin receptor type 2 [5]
  IC50: > 50 µM (inactive)
[6]
  IC50: > 49.8 µM (inactive)
CHO-K1
  IC50: > 66.2 µM (inactive)
cells
  IC50: 10.9 µM (active)

## N#C/C(=N\Nc1ccc(Cl)cc1)C(N)=S
[11]
  EC50: > 150 µM (not active)
[12]
  IC50: 2.04 µM (active)
Streptococcus
  EC50: > 150 µM (not active)
[13]
  IC50: 5.01 µM (active)
Streptokinase A
  EC50: > 150 µM (not active)
[14]
  AC50: 7.86 µM (active)

## CCC(CC)C(=O)N(CCc1ccc(OC)cc1)Cc1nc(O)c2ccccc2n1
H9c2
  IC50: > 79 µM (inactive)
[15]
  IC50: 12.4 µM (active)

## CC(=O)c1ccc(N2C(=O)CC3(CC(c4ccc(Cl)cc4)=NO3)C2=O)cc1 (stereo unspecified)
[16]
  EC50: > 100 µM (inactive)

## Cc1ccc(C(C)N=C(S)NC2CCCCC2)cc1C (stereo unspecified)
[12]
  IC50: 3.36 µM (active)
[13]
  IC50: 8 µM (active)
